Measurements taken from patent publication US9751919B2, “Antimicrobial compositions comprising a hyaluronic acid binding peptide and a β-lactam antibiotic” (priority 2012, dated 2017).
Where “and” joins values, the source holds several entries; their conditions need not be identical. Equal values may be shown once. Marks after values point to notes of the source that are not given here.

Experiments:
Experiment in all cases: Checkerboard assay (FIC index)
VRE = format: cell-based, Enterococcus faecium; conditions: antibiotic combined with PEP35
Experimental: (§1) The checkerboard assays were carried out as described by Eliopoulos and Moellering (Chapter 9) in Antibiotic in Laboratory Medicine, Lorian Ed. 1996 as well as Bonapace et al. Diagnostic Microbiology and Infectious Diseases 2002; 44:363-366 and Bonapace et al. Diagnostic Microbiology and Infectious Diseases 2000; 38:43-50. In brief, checkerboard assays were performed in 96 well microtitre trays using an 8-by-8 well configuration. […] 96-well custom designed microtitre plates contained 100 ul/well of cation adjusted Mueller-Hinton broth (eg. for Enterobacteriaceae) with or without lysed horse blood (2-5% V/V) [eg. for S. pneumoniae] and were inoculated to achieve a final concentration of approximately 5×10^5 CFU/ml and incubated in ambient air for 24 hours prior to reading. Colony counts were performed periodically to confirm inocula. Quality control was performed every two weeks using a variety of ATCC QC organisms including; S. pneumoniae 49619, S. aureus 29213, E. faecalis 29212, E. coli 25922 and P. aeruginosa 27853. For all antimicrobials as well as PEP35, CLSI criteria was used.
(§2) The fractional inhibitory concentration index (FIC index) was used to interpret synergy, antagonism or additivity/indifference. FIC index=FIC of drug A+FIC of drug B where:
(§3) The FIC of drug A and drug B is calculated as follows, FIC drug A=MIC of drug A in combination/MIC of drug A alone and FIC of drug B=MIC of drug B in combination/MIC of drug B alone. Synergy is defined as FIC index ≦0.5, additivity/indifference FIC >0.5-4 and antagonism FIC index >4.
(§4) Antimicrobials used included PEP35, cefazolin, ceftriaxone, vancomycin, linezolid, tigecycline and daptomycin versus Gram-positive cocci and PEP35, gentamicin, levofloxacin, piperacillin/tazobactam, meropenem and colistin (Polymyxin E) versus Gram-negative bacilli. These agents were obtained as laboratory grade powders from their respective manufacturers. Stock solutions were prepared and dilutions made as described by the Clinical Laboratory Standards Institute (2005 CLSI).
(§5) Organisms included Gram-positive cocci (2 strains of each): Methicillin-susceptible Staphylococcus aureus (MSSA), community-associated (CA) and healthcare-associated (HA) methicillin-resistant Staphylococcus aureus (MRSA), vancomycin-intermediate Staphylococcus aureus (VISA), vancomycin-resistant Staphylococcus aureus (VRSA), methicillin-resistant Staphylococcus epidermidis (MRSE), Streptococcus pyogenes, Streptococcus agalactiae, Streptococcus pneumoniae, Enterococcus faecalis, Enterococcus faecium and vancomycin-resistant enterococcus (VRE). Gram-negative bacilli tested (2 strains of each) included: E. coli, Pseudomonas aeruginosa, Klebsiella pneumoniae, K. oxytoca, Enterobacter cloacae, P. mirabilis and Stenotrophomonas maltophilia. MIC testing, following two subcultures from frozen stock were determined by the CLSI 2005 approved broth microdilution method.

MSSA = format: cell-based, Staphylococcus aureus
Experimental: (§6) Checkerboard assays were carried out as described by Bonapace et al.
as §1, with “Diagnostic” for “The checkerboard assays were carried out as described by Eliopoulos and Moellering (Chapter 9) in Antibiotic in Laboratory Medicine, Lorian Ed. 1996 as well as Bonapace et al. Diagnostic”, “2002; 44:363-366.” for “2002; 44:363-366 and Bonapace et al. Diagnostic Microbiology and Infectious Diseases 2000; 38:43-50.”, “27853. […] All peptides were assessed for synergy with β-lactams and vancomycin.” for “27853.”, “as the peptides,” for “as PEP35,”, “criteria were” for “criteria was”
as §2
as §3, with “was” for “is”, “additivity/indifference defined as a” for “additivity/indifference”, “between 0.5 and 4” for “>0.5-4”, “antagonism defined as an” for “antagonism”
as §1, §3, §4
(§7) Organisms included Gram-positive cocci (2 strains of each): Methicillin-susceptible Staphylococcus aureus (MSSA), community-associated (CA) and healthcare-associated (HA) methicillin-resistant Staphylococcus aureus (MRSA), vancomycin-intermediate Staphylococcus aureus (VISA), vancomycin-resistant Staphylococcus aureus (VRSA), methicillin-resistant Staphylococcus epidermidis (MRSE), Streptococcus pyogenes, Streptococcus agalactiae, Streptococcus pneumoniae, Enterococcus faecalis, Enterococcus faecium and vancomycin-resistant enterococcus (VRE). […]

VISA = format: cell-based, Staphylococcus aureus
Experimental: as §6
as §1, with “Diagnostic” for “The checkerboard assays were carried out as described by Eliopoulos and Moellering (Chapter 9) in Antibiotic in Laboratory Medicine, Lorian Ed. 1996 as well as Bonapace et al. Diagnostic”, “2002; 44:363-366.” for “2002; 44:363-366 and Bonapace et al. Diagnostic Microbiology and Infectious Diseases 2000; 38:43-50.”, “27853. […] All peptides were assessed for synergy with β-lactams and vancomycin.” for “27853.”, “as the peptides,” for “as PEP35,”, “criteria were” for “criteria was”
as §2
as §3, with “was” for “is”, “additivity/indifference defined as a” for “additivity/indifference”, “between 0.5 and 4” for “>0.5-4”, “antagonism defined as an” for “antagonism”
as §1, §3, §4, §7

MRSE = format: cell-based, Staphylococcus epidermidis; conditions: antibiotic combined with PEP35
Experimental: as §1, §2, §3, §4, §5

[1] = antibiotic combined with PEP35, MSSA 83424
[2] = β-lactam combined with HybPEP35-1, MSSA 79333
[3] = β-lactam combined with PEP-52, MSSA 79333
[4] = β-lactam combined with Scrambled PEP35, MSSA 79333
[5] = antibiotic combined with PEP35, VISA 92
[6] = antibiotic combined with PEP35, VISA 95
[7] = β-lactam combined with HybPEP35-1, VISA 96
[8] = β-lactam combined with PEP-52, VISA 96
[9] = β-lactam combined with Scrambled PEP35, VISA 96
[10] = antibiotic combined with PEP35, MSSA 79333
[11] = antibiotic combined with PEP35, VISA 96

| Structure (SMILES) | Avg ΣFIC (range) (VRE; VRE 70769) | Avg ΣFIC (range) (VRE; VRE 77872) | Avg ΣFIC (range) (MSSA; [1]) | Avg ΣFIC (range) (MSSA; [2]) | Avg ΣFIC (range) (MSSA; [3]) | Avg ΣFIC (range) (MSSA; [4]) | Avg ΣFIC (range) (VISA; [5]) | Avg ΣFIC (range) (VISA; [6]) | Avg ΣFIC (range) (VISA; [7]) | Avg ΣFIC (range) (VISA; [8]) | Avg ΣFIC (range) (VISA; [9]) | Avg ΣFIC (range) (MRSE; MRSE 79617) | Avg ΣFIC (range) (MRSE; MRSE 83100) | Avg ΣFIC (range) (MSSA; [10]) | Avg ΣFIC (range) (VISA; [11]) |
| --- | --- | --- | --- | --- | --- | --- | --- | --- | --- | --- | --- | --- | --- | --- | --- |
| Cc1nnc(SCC2=C(C(=O)O)N3C(=O)[C@@H](NC(=O)Cn4cnnn4)[C@H]3SC2)s1 [Cefazolin] | >1* | >1* | 1.02 (0.75-1.25) | 0.57 | >1* | 0.57 | 0.33 (0.18-0.53) and 0.45 (0.18-1.015) | 0.49 (0.31-0.62) and 0.37 (0.18-0.56) | 0.30 | >1* | 0.30 | 0.88 (0.53-1.25) | 0.52 (0.37-0.62) |  |  |
| CO/N=C(\C(=O)N[C@@H]1C(=O)N2C(C(=O)O)=C(CSc3nc(=O)c(=O)[nH]n3C)CS[C@H]12)c1csc(N)n1 [Ceftriaxone] | >1* | >1* | 0.80 (0.5-1.12) | 0.98 | >1* | 0.98 | 0.52 (0.28-1.06) | 0.28 (0.09-0.56) and 0.37 (0.18-0.56) | 0.26 | >1* | 0.26 | 0.88 (0.53-1.25) | 1.05 (0.75-1.25) |  |  |
| CCCCCCCCCC(=O)N[C@@H](Cc1c[nH]c2ccccc12)C(=O)N[C@H](CC(N)=O)C(=O)N[C@@H](CC(=O)O)C(=O)N[C@@H]1C(=O)NCC(=O)N[C@@H](CCCN)C(=O)N[C@@H](CC(=O)O)C(=O)N[C@H](C)C(=O)N[C@@H](CC(=O)O)C(=O)NCC(=O)N[C@H](CO)C(=O)N[C@@H]([C@H](C)CC(=O)O)C(=O)N[C@@H](CC(=O)c2ccccc2N)C(=O)O[C@@H]1C [Daptomycin, daptomycin] | 0.82 (0.28-1.25) | 1.34 (1.03-1.5) | 1.58 (1.015-2.5) |  |  |  | 1.54 (1.015-2.5) | 1.23 (1.06-1.5) |  |  |  | 1.19 (1.03-1.5) | 1.1 (1.0-1.25) | 1.19 (1.03-1.5) | 1.21 (1.03-1.5) |
| CC(=O)NC[C@H]1CN(c2ccc(N3CCOCC3)c(F)c2)C(=O)O1 [Linezolid, linezolid] | 1.09 (1-1.25) | 1.19 (1.03-1.5) | 0.74 (0.515-1.06) |  |  |  | 0.99 (0.75-1.12) | 0.98 (0.62-1.25) |  |  |  | 1.10 (0.56-1.5) | 0.73 (0.515-1.12) | 1.05 (0.75-1.25) | 0.77 (0.56-1.06) |
| C[C@@H](O)[C@H]1C(=O)N2C(C(=O)O)=C(S[C@@H]3CN[C@H](C(=O)N(C)C)C3)[C@H](C)[C@H]12 [Meropenem] |  |  |  | 1.11 | >1* | 1.11 |  |  | 0.45 | >1* | 0.45 |  |  | 0.52 | 0.41 |
| CN(C)c1cc(NC(=O)CNC(C)(C)C)c(O)c2c1C[C@H]1C[C@H]3[C@H](N(C)C)C(O)=C(C(N)=O)C(=O)[C@@]3(O)C(O)=C1C2=O [Tigecycline, tigecycline] | 1.2 (1.03-1.05) | 1.39 (1.03-2.06) | 0.85 (0.5-1.12) |  |  |  | 0.56 (0.31-1.06) | 0.46 (0.37-0.56) and 0.43 (0.31-0.56) |  |  |  | 1.19 (1.03-1.5) | 1.21 (1.03-1.5) | 0.99 (0.62-1.5) | 0.91 (0.62-1.12) |
| CN[C@H](CC(C)C)C(=O)N[C@H]1C(=O)N[C@@H](CC(N)=O)C(=O)N[C@H]2C(=O)N[C@H]3C(=O)N[C@H](C(=O)N[C@H](C(=O)O)c4cc(O)cc(O)c4-c4cc3ccc4O)[C@H](O)c3ccc(c(Cl)c3)Oc3cc2cc(c3O[C@@H]2O[C@H](CO)[C@@H](O)[C@H](O)[C@H]2O[C@H]2C[C@](C)(N)[C@H](O)[C@H](C)O2)Oc2ccc(cc2Cl)[C@H]1O [Vancomycin] | 0.92 (0.506-1.25) | 1.19 (1.03-1.5) | 1.19 (1.03-1.5) |  |  |  | 1.1 (1.0-1.25) | 1.1 (1.03-1.25) |  |  |  | 0.99 (0.62-1.25) | 0.60 (0.31.12) rpt | 1.11 (1.0-1.25) | 0.88 (0.53-0.125) |
